Several values for one entry are separate records, joined by “and”; a condition that tells them apart may be missing. Equal values may be shown once. Read-outs that look alike come from different tables or passages of the source.
Tests used:
[1] = Binding to liver microsomes; format: in vitro ADME; settings: pH 7.4; human liver microsomes 1 mg/mL; read-out: Microsome fraction unbound
Protocol: Dialysis was conducted for 6 h and parallel non-dialyzed samples were included to confirm the absence of compound degradation. Binding to hepatocytes (at a cell density of 1 x 10^6 cells/mL) was calculated from the measured microsomal binding (at 1 mg/mL) as described previously ([26]). The fraction unbound (fu) was determined from the ratio of the dialysate to the donor concentration, assuming that the system was at steady state at the end of the dialysis period. For plasma, the data were corrected for the dilution factor to give a binding value for neat plasma according to previously published methods ([27]).

[2] = In vitro cytotoxicity assay; format: cell-based; settings: mouse, primary mouse macrophages (PMM)
L. panamensis = test: Leishmania intramacrophage in vitro assay; format: cell-based; settings: L. panamensis MHOM/PA/71/LS94
Protocol: (§1) A drug incubation period of 96 h was applied, and cells were stained with Giemsa for microscopic evaluation of cellular amastigote burdens. Percentage reduction compared to the burden in the infected non-treated control wells was used as a measure for drug activity.

L. tropica = test: Leishmania intramacrophage in vitro assay; format: cell-based; settings: L. tropica MHOM/AF/2015/HTD7
Protocol: as §1

L. infantum = test: Promastigote back-transformation assay on organs of treated hamsters; format: in vivo, golden hamsters; settings: for parasite score, Bone-marrow / parasite score, Liver / parasite score, Spleen: 5 days, individual animals 1-5
Text: Female golden hamsters (5 per treatment group) were infected through intracardiac administration of 2x10^7 L. infantum amastigotes obtained from the spleen of a heavily infected donor hamster. […] After 5-day treatment period, followed by a 10-day wash out period, animals were sacrificed, and parasites burden assessed in the three target organs (liver, spleen, and bone-marrow). For this assessment, organs of individual animals were weighed, except for bone-marrow thus only providing a semi-quantitative evaluation only. Impression smears were Giemsa-stained for microscopic evaluation of amastigote burden, expressed as LDU (= mean number of amastigotes/cell × organ weight in mg) and the results were expressed as a percentage reduction compared to the burdens in the control group (vehicle as placebo). For evaluating the presence of viable residual burden after treatment, a promastigote back-transformation assay was conducted. This consisted of the incubation at ambient temperature of aseptically collected pieces of spleen or liver tissue in 1 mL of promastigote back-transformation medium in 24-well plates. For the bone-marrow, resected femurs were flushed with 1 mL medium. The medium consists of HOMEM pH 6.0 prepared as described elsewhere ([5]) with 10% fetal bovine serum (Gibco), 2.5% penicillin/streptomycin and 1% gentamicin (Merck). A qualitative assessment of the presence of promastigotes was made after 3 and 5 days of incubation and a score was attributed (+, ++ or +++) based on parasite density in the positive wells.
Supplementary Materials and methods
Promastigote transformation assay
For evaluating the presence of viable residual burdens after treatment, a promastigote back-transformation assay is conducted. This test consists of the incubation at ambient temperature of aseptically collected pieces of spleen or liver tissue in 1 mL of promastigote back-transformation medium in 24-well plates. For the bone-marrow, resected femurs are flushed with 1 mL medium. The medium consists of HOMEM pH 6.0 prepared as described elsewhere (1) with 10% fetal bovine serum (Gibco) and 2.5% penicillin/streptomycin and 1% gentamicin (Merck). A qualitative assessment of the presence of promastigotes is made after 3 and 5 days of incubation and a score is attributed (+, ++ or +++) based on parasite density in the positive […]
Supplementary Information on Tables
L. infantum MHOM/FR/96/LEM3323 Cl4 was originally obtained from a French HIV-positive patient (Languedoc area in Southern France) and provided by Dr. Laurence Lachaud of the Centre National de Référence des Leishmanioses (CNRL), Montpellier, France. The miltefosine and paromomycin resistant lines (LEM3323 Cl4 MIL-R and PMM-R) were obtained by successive in vitro selection cycles on intracellular amastigotes (2, 3)

In vivo pharmacokinetics = test: In vivo pharmacokinetics; set-up: species or system male beagle dogs
Protocol: Additional PK studies were also conducted by WuXi AppTec Co, Ltd (Shanghai, China) according to protocols reviewed and approved by DNDi. […] IV and oral formulations for rats, mice and hamsters were the same as described above. For dogs, the IV dose was administered in saline containing 2% DMSO and 3% Solutol HS-15 and the oral formulation was as described above. Blood was sampled up to 48 h post-dose into vials containing potassium EDTA as an anticoagulant, proteins were precipitated with acetonitrile and plasma was separated and assayed by LC-MS.
Single dose pharmacokinetic parameters (clearance, volume of distribution and half-life) were initially estimated using non-compartmental methods and oral bioavailability was calculated using the ratio of the dose corrected AUC after oral dosing relative to that after IV administration. Nominal doses were used in the calculations unless the measured dose differed by more than 15% from the nominal dose, in which case the measured dose was used. Where a full concentration versus time profile was obtained from a single animal, parameters were estimated for each animal and mean and standard deviations calculated. In the case of mice where sparse sampling was used with multiple animals per time point, the data analysis was conducted using the mean profile.

CaV1.2 = CaV1.2 (Homo sapiens, UniProt Q13936); test: in vitro
Chain of CaV1.2 (Q13936 whole entry): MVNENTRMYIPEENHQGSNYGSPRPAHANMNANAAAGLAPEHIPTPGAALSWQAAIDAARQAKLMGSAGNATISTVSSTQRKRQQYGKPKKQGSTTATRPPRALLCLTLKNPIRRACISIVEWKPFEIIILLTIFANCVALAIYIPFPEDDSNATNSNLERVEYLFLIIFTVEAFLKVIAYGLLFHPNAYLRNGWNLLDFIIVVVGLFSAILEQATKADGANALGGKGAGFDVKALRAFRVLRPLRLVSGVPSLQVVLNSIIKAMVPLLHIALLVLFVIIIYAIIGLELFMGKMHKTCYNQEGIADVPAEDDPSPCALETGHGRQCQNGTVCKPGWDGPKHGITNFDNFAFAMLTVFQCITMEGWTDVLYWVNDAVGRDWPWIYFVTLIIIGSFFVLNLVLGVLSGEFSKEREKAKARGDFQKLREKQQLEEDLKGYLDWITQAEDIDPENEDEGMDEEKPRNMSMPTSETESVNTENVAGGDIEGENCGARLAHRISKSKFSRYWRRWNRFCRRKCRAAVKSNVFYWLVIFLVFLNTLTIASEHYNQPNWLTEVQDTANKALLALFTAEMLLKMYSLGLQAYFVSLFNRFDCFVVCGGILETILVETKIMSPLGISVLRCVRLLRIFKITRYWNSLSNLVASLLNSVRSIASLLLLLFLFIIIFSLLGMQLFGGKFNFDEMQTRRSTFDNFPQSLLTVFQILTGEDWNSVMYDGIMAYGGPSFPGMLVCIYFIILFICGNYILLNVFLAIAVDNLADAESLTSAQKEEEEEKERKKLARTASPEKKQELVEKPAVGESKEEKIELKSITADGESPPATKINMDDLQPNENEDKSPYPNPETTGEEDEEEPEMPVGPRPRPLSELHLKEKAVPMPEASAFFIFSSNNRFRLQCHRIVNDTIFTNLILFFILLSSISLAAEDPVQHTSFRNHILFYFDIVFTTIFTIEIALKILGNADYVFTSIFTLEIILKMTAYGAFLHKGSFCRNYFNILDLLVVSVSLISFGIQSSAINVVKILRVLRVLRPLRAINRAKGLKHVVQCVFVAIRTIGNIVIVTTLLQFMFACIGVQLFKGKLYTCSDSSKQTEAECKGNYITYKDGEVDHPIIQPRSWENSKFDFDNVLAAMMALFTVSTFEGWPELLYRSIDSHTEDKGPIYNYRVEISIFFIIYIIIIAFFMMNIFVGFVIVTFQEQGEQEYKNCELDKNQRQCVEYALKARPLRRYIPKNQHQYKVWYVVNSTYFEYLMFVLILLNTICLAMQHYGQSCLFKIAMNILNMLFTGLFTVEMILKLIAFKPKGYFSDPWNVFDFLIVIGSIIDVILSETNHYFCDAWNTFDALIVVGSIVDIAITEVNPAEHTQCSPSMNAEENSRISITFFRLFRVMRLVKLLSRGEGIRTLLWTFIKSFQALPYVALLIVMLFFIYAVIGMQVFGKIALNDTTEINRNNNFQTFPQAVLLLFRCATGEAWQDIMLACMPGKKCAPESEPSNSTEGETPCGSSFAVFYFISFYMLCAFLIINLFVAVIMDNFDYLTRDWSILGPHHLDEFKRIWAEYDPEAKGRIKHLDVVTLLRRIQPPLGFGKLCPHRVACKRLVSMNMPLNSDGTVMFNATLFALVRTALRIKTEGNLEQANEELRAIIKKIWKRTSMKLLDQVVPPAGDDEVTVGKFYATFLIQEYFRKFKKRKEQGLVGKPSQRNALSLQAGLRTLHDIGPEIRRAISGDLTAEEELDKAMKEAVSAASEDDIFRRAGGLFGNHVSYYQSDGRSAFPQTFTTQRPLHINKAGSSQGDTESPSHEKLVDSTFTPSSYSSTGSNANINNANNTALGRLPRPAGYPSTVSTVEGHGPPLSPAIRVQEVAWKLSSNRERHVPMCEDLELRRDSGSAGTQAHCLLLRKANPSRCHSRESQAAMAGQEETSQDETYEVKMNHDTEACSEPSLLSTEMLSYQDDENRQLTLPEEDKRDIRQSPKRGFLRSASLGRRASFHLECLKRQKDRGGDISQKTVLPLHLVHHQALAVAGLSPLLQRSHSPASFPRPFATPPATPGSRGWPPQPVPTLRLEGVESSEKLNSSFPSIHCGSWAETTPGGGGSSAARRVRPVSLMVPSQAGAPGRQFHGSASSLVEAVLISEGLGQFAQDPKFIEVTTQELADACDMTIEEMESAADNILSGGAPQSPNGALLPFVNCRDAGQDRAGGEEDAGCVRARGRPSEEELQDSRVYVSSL
Chain of CaV1.2 (Q08289 whole entry partner): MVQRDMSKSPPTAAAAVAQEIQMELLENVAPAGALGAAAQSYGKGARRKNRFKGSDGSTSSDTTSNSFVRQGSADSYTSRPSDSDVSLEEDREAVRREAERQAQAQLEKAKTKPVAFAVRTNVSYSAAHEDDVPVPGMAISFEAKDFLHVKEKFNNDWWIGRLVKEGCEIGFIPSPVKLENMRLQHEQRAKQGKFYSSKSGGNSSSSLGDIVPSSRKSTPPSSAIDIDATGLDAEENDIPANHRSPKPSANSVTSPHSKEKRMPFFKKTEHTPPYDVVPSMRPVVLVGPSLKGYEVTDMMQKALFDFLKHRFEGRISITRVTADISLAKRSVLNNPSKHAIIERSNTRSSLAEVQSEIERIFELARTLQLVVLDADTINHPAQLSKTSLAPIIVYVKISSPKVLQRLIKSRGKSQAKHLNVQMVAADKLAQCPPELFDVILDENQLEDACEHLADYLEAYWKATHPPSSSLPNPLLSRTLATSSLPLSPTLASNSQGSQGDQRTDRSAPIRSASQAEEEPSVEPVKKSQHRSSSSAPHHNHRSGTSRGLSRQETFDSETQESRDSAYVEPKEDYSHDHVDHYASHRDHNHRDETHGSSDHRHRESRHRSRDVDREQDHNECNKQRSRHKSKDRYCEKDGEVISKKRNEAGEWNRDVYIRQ

[3] = In vitro cytotoxicity assay; format: cell-based; settings: human, U2OS human osteosarcoma cells
[4] = In vitro cytotoxicity assay; format: cell-based; settings: monkey, Vero monkey kidney epithelial cells
[5] = test system: T. cruzi (Tulahuen strain); test: In vitro activity against other kinetoplastid parasites; format: cell-based; settings: Trypanosoma cruzi
[6] = dogs, single oral 90 mg/kg, two individual dogs, 90 mg/kg
[7] = male, beagle, dog, plasma, dogs, single oral 30 mg/kg
[8] = male, beagle, dog, plasma, dogs, single oral 90 mg/kg
[9] = male, beagle, plasma, Dog, oral 5.0 mg/kg

Question: What does the source list for `Cc1[nH]c2nc(N)nc(C)c2c1-c1ccc(C#N)c2c1OCO2` [DNDI-6174]?
Answer: fraction unbound at 6 h, 0.5 µM [1]: 0.51; CC50 [2]: > 64000 nM; EC50 (L. panamensis): 40 nM; EC90 (L. panamensis): 85 nM; EC50 (L. tropica): 360 nM; EC90 (L. tropica): 2180 nM; parasite score, Bone-marrow (L. infantum; 3.125 mg/kg bid): ++; parasite score, Liver (L. infantum; 3.125 mg/kg bid): + (3×) and - (2×); parasite score, Spleen (L. infantum; 3.125 mg/kg bid): ++; parasite score, Bone-marrow (L. infantum; 12.5 mg/kg bid): - and +; parasite score, Liver (L. infantum; 12.5 mg/kg bid): -; parasite score, Spleen (L. infantum; 12.5 mg/kg bid): - and +; parasite score, Bone-marrow (L. infantum; 12.5 mg/kg qd): + (3×) and ++ (2×); parasite score, Liver (L. infantum; 12.5 mg/kg qd): + (3×) and - (2×); parasite score, Spleen (L. infantum; 12.5 mg/kg qd): ++ (4×) and +; parasite score, Bone-marrow (L. infantum; 25 mg/kg qd): + and - (4×); parasite score, Liver (L. infantum; 25 mg/kg qd): - (4×) and +; parasite score, Spleen (L. infantum; 25 mg/kg qd): -; parasite score, Bone-marrow (L. infantum; 50 mg/kg qd): - (4×) and +; parasite score, Liver (L. infantum; 50 mg/kg qd): - (4×) and +; parasite score, Spleen (L. infantum; 50 mg/kg qd): - (4×) and +; emergence of viable promastigotes from recovered organs, in words (L. infantum; DNDI-6174 treated animals): almost all the organs recovered proved to be negative in culture; AUC0-∞ (In vivo pharmacokinetics; [6]): 533 µg·h/mL; T1/2 (In vivo pharmacokinetics; [6]): 20.9 h; half-life (In vivo pharmacokinetics; male, beagle, dog, plasma, iv, 1 mg/kg, Dog, intravenous 1.0 mg/kg, read-out: Apparent t1/2 (converted)): 9.84 h; AUC(0-inf) (In vivo pharmacokinetics; male, beagle, dog, plasma, iv, 1 mg/kg, Dog, intravenous 1.0 mg/kg, read-out: Plasma AUC0-inf): 5 µg·h/mL; clearance (In vivo pharmacokinetics; male, beagle, dog, plasma, iv, 1 mg/kg, Dog, intravenous 1.0 mg/kg, read-out: Plasma CL): 3.5 mL/min/kg; clearance (In vivo pharmacokinetics; male, beagle, dog, plasma, iv, 1 mg/kg, Dog, read-out: Measured in vivo CLplasma): 3.4 mL/min/kg; half-life (In vivo pharmacokinetics; male, beagle, dog, plasma, po, 5 mg/kg, Dog, oral 5.0 mg/kg, read-out: Apparent t1/2 (converted)): 6.9 h; AUC(0-inf) (In vivo pharmacokinetics; male, beagle, dog, plasma, po, 5 mg/kg, Dog, oral 5.0 mg/kg, read-out: Plasma AUC0-∞): 18.5 µg·h/mL; AUC(0-inf) (In vivo pharmacokinetics; male, beagle, dog, plasma, po, 30 mg/kg, dogs, single oral 30 mg/kg, read-out: AUC0-∞): 255 µg·h/mL; half-life (In vivo pharmacokinetics; male, beagle, dog, plasma, po, 30 mg/kg, dogs, single oral 30 mg/kg, read-out: T1/2 (converted)): 14.4 h; AUC(0-inf) (In vivo pharmacokinetics; male, beagle, dog, plasma, po, 90 mg/kg, dogs, single oral 90 mg/kg, two individual dogs, read-out: AUC0-∞): 613 µg·h/mL; half-life (In vivo pharmacokinetics; male, beagle, dog, plasma, po, 90 mg/kg, dogs, single oral 90 mg/kg, two individual dogs, read-out: T1/2 (converted)): 14.2 h; Cmax (In vivo pharmacokinetics; [7]): 9590 ng/mL; Tmax (In vivo pharmacokinetics; [7]): 3.33 h; Cmax (In vivo pharmacokinetics; [8]): 19100 ng/mL; Tmax (In vivo pharmacokinetics; [8]): 10.7 h; Vd (In vivo pharmacokinetics; male, beagle, plasma, Dog, intravenous 1.0 mg/kg, read-out: Plasma Vss): 2.5 L/kg; Cmax (In vivo pharmacokinetics; [9]): 2020 ng/mL; Tmax (In vivo pharmacokinetics; [9]): 4 h; bioavailability (In vivo pharmacokinetics; [9]): 90%; inhibition at 100 µM (CaV1.2): 43%; CC50 [3]: > 80000 nM; CC50 [4]: > 50000 nM; EC50 [5]: < 5 nM

Source: publication PMC7615677 (Science translational medicine, 2023)
